Reference: PMC11079024, “Identification of a family of species-selective complex I inhibitors as potential anthelmintics” (Nature Communications, 2024)
Where “and” joins values, the source holds several entries; their conditions need not be identical. Identical values can stand only once. Like-named read-outs stand apart in the source and are kept apart here.

Columns and labels:
L1 wild-type C. elegans = conditions: for Screen "Hit" / Relative Motility: 50 μM; for Relative Motility: relative to DMSO controls, single biological replicate
[1] = biological target: C. elegans complex II (succinate dehydrogenase) (Caenorhabditis elegans, UniProt O62215+P41956+Q09545); experiment: In vitro complex II activity assay, C. elegans mitochondria; assay type: biochemical; conditions: single replicate
Chain of C. elegans complex II (succinate dehydrogenase) (P41956 30-182): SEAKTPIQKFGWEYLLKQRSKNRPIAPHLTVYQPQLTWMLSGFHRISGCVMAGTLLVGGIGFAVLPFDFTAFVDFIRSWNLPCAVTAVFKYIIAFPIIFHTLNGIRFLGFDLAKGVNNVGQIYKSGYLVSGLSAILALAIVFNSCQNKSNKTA
Chain of C. elegans complex II (succinate dehydrogenase) (Q09545 22-298): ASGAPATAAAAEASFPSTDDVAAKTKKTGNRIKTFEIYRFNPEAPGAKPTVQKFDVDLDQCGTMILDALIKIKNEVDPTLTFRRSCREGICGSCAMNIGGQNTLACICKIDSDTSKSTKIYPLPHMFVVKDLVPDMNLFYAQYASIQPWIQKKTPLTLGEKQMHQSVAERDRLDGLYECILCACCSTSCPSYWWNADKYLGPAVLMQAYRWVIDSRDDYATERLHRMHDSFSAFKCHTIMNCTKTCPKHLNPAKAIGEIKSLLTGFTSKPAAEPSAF
Chain of C. elegans complex II (succinate dehydrogenase) (Q09508 32-646, further chain): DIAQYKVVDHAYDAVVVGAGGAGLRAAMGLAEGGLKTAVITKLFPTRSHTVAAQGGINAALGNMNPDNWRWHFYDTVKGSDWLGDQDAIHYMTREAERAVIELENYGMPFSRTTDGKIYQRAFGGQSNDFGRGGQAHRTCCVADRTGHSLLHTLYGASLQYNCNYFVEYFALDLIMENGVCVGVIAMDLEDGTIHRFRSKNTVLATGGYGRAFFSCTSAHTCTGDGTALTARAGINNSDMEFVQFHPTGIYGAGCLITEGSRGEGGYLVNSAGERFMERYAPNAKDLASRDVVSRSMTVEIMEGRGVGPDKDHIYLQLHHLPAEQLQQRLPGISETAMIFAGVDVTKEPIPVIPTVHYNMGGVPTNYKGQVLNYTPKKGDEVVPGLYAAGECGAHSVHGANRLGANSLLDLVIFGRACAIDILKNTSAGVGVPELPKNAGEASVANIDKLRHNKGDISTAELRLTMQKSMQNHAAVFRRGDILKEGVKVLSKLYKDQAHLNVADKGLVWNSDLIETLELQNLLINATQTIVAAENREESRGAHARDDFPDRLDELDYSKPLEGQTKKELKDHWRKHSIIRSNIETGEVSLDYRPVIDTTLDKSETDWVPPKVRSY
Chain of C. elegans complex II (succinate dehydrogenase) (O62215 31-145): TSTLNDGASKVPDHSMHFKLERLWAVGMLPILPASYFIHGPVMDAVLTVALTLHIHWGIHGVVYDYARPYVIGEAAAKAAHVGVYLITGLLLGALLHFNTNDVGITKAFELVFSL
Description: Mitochondria were isolated from the following free-living nematode strains: C. elegans—N2, CB3474, ECA882, ECA917, ECA1075, ECA1080; C. briggsae—AF16; P. pacificus—PS312; and P. hermaphrodita—B178. With the exception of the P. hermaphrodita strain B178, adult worms of each strain were grown in bulk through liquid culture to obtain mitochondria in sufficient quantities. Due to poor growth in liquid media, mixed stage populations of P. hermaphrodita were washed off and collected from NGM plates seeded with OP50. The isolation of mitochondria from all free-living nematode strains followed the protocol previously outlined in Burns et al.[24]. In brief, a 1 L saturated culture of E. coli HB101 was concentrated 20-fold in 50 mL complete S-medium. ~500,000 L1 worms synchronized from an embryo preparation performed the day prior were added to the S-media/HB101 suspension and grown to adulthood over the course of 3.5 days at 20 °C with shaking at 165 rpm. Following growth, worms were collected in 10 ×15 mL conical tubes and washed 7 times in M9 buffer. Worm suspensions were then combined into a single 15 mL conical tube and diluted to a final volume of 15 mL with M9 buffer. 1 mL aliquots of worm suspension were then distributed to 15 × 1.5 mL screw-cap microcentrifuge tubes and were pelleted at 500 g for 1 min. Excess M9 was aspirated without disturbing the worm pellet. 600 μL ice-cold isolate buffer A (250 mM sucrose, 10 mM Tris (pH 7.5), 1 mM EDTA, 1 mM PMSF (freshly prepared)) and 300 μL cold glass beads were then added to each tube. Tubes were incubated on ice for 10 min, and the worms were then lysed by bead beating (6 x 30 s, with 1 min cooling intervals). Tubes containing worm lysate were centrifuged at 1,000 g for 10 min at 4 °C and the supernatant was transferred to 15 new microcentrifuge tubes on ice. The tubes were centrifuged a second time at 1,000 g for 10 min at 4 °C and the supernatant was once again transferred to 15 new microcentrifuge tubes on ice. These tubes were then centrifuged at 16,000 g for 10 min at 4 °C. The resulting mitochondrial pellet was washed twice by re-suspension in 300 μL of ice-cold isolate buffer B (250 mM sucrose, 10 mM Tris (pH 7.5), 1 mM EDTA). Following the final wash, isolation buffer was aspirated from each tube and the pellets were flash-frozen in ethanol/dry ice and stored at −80 °C until needed.
The enzymatic activities of individual ETC complexes (I-IV) were assessed spectrophotometrically in isolated mitochondria using a Varioskan LUX Multimode plate reader (ThermoFisher Scientific). Mitochondrial pellets previously isolated were thawed on ice and resuspended in ice-cold isolation buffer (250 mM sucrose, 10 mM Tris (pH 7.5), 1 mM EDTA). The BCA assay (Walker, 1994) was used to quantify the protein concentration of mitochondria suspensions; solutions were diluted to a concentration of 0.2 mg/mL for use in all assays. For the complex I assay, mitochondria pellets were freeze-thawed on ice three times to increase enzyme accessibility. […] 20 μL mitochondria suspension was then added/mixed with a pipette to initiate the reaction. Immediately following the addition of mitochondria, absorbance was measured (complex I and II: 600 nm; complex III and IV: 550 nm) in 30 s intervals over 15 min. Enzymatic activity was determined in each reaction by plotting absorbance versus time and calculating the slope of the curve during the initial linear phase of the reaction. […] Percent activity of each complex was calculated by dividing the enzyme-specific activity of each well by the enzyme-specific activity of the corresponding solvent controls.
Complex II (succinate dehydrogenase) activity was assessed using the DCIP-coupled method previously described in Burns et al.[24].
For preliminary screens of hit compounds, compounds were screened at 100 μM; data are the average of at least three biological replicates. The complex I and II activity assays were used for additional dose-response experiments.

[2] = hit = relative motility below 0.25 3 hours after removal of KCN
[3] = worm motility 3 hours after removal of KCN
[4] = active or inactive at 50 μM in C. elegans assay of RQ-dependent metabolism
[5] = KCN survival assay, hit = relative motility below 0.25
[6] = worm motility 3 hours after the removal of KCN (endpoint)

SMILES: COc1ccc(CSc2nc3ccccc3[nH]2)cc1 [Compound 5568705]
- Screen "Hit" (L1 wild-type C. elegans; [2]): Y (hits were identified as compounds that reduced relative motility below 0.25 (75% reduction))
- Relative Motility (L1 wild-type C. elegans; [3]): 0.100

SMILES: COC(=O)c1ccc(OCC(O)Cn2c(C)nc3ccccc32)cc1 (centres unmarked) [Compound 5929389]
- Hit (L1 wild-type C. elegans; [4]): non

SMILES: CCN(CC)CCSc1nc2ccccc2n1Cc1ccccc1 [Compound 5685018]
- Screen "Hit" (L1 wild-type C. elegans; [5]): Y (hits were identified as compounds that reduced relative motility below 0.25 (75% reduction))
- Relative Motility (L1 wild-type C. elegans; [6]): 0.220

SMILES: CC(C)CCSc1nc2ccccc2[nH]1 [Compound 5867913]
- Screen "Hit" (L1 wild-type C. elegans; hit = relative motility below 0.25 3 hours after the removal of KCN): Y (hits were identified as compounds that reduced relative motility below 0.25 (75% reduction))
- Relative Motility (L1 wild-type C. elegans; [6]): 0.150

SMILES: CCCOc1ccc(Cn2c(CO)nc3ccccc32)cc1 [Compound 7356999]
- Hit (L1 wild-type C. elegans; [4]): non

SMILES: Cc1ccc2[nH]c(-c3ccccc3N)nc2c1 [Compound 5534607]
- Hit (L1 wild-type C. elegans; active (hit) or inactive (non) at 50 μM in C. elegans assay of RQ-dependent metabolism): non

SMILES: CCn1c(NCc2cccc(Br)c2)nc2ccccc21 [Compound 7746308]
- Screen "Hit" (L1 wild-type C. elegans; [2]): Y (hits were identified as compounds that reduced relative motility below 0.25 (75% reduction))
- Relative Motility (L1 wild-type C. elegans; [3]): 0.200

SMILES: CCn1c(/C=C/c2ccccc2)nc2ccccc21 [Compound 5958035]
- Screen "Hit" (L1 wild-type C. elegans; [5]): Y (hits were identified as compounds that reduced relative motility below 0.25 (75% reduction))
- Relative Motility (L1 wild-type C. elegans; [6]): 0.160

SMILES: Cc1ccccc1Cn1cnc2ccccc21 [Compound 5656207]
- Hit (L1 wild-type C. elegans; [4]): non

SMILES: COc1ccc2c(c1)nc(SCc1ccccc1)n2C [Compound 5649512]
- Screen "Hit" (L1 wild-type C. elegans; [2]): Y (hits were identified as compounds that reduced relative motility below 0.25 (75% reduction))
- Relative Motility (L1 wild-type C. elegans; [3]): 0.190

SMILES: CC(C)(C)c1ccc(Cn2c(N)nc3ccccc32)cc1 [Compound 5564334]
- Screen "Hit" (L1 wild-type C. elegans; [5]): Y (hits were identified as compounds that reduced relative motility below 0.25 (75% reduction))
- Relative Motility (L1 wild-type C. elegans; [6]): 0.130

SMILES: Cc1ccc(C(C)C)cc1OCC(O)Cn1c(C)nc2ccccc21 (centres unmarked) [Compound 7748492]
- Screen "Hit" (L1 wild-type C. elegans; [2]): Y (hits were identified as compounds that reduced relative motility below 0.25 (75% reduction))
- Relative Motility (L1 wild-type C. elegans; [3]): 0.220

SMILES: C=CCn1c(/C=C/c2ccccc2OC)nc2ccccc21 [Compound 7121977]
- Screen "Hit" (L1 wild-type C. elegans; [5]): Y (hits were identified as compounds that reduced relative motility below 0.25 (75% reduction))
- Relative Motility (L1 wild-type C. elegans; [6]): 0.140

SMILES: O=C(O)CC(=O)O [Malonate]
- Absorbance DCIP [600nm], complex II ([1]; 30 s): 0.481 and 0.464 and 0.499
- Absorbance DCIP [600nm], complex II ([1]; 60 s): 0.480 and 0.464 and 0.499
- Absorbance DCIP [600nm], complex II ([1]; 90 s): 0.480 and 0.464 and 0.499
- Absorbance DCIP [600nm], complex II ([1]; 120 s): 0.480 and 0.464 and 0.499
- Absorbance DCIP [600nm], complex II ([1]; 150 s): 0.480 and 0.463 and 0.499
- Absorbance DCIP [600nm], complex II ([1]; 180 s): 0.480 and 0.463 and 0.499
- Absorbance DCIP [600nm], complex II ([1]; 210 s): 0.480 and 0.463 and 0.498
- Absorbance DCIP [600nm], complex II ([1]; 240 s): 0.480 and 0.463 and 0.498
- Absorbance DCIP [600nm], complex II ([1]; 270 s): 0.479 and 0.462 and 0.498 and 0.486
- Absorbance DCIP [600nm], complex II ([1]; 300 s): 0.479 and 0.461 and 0.498 and 0.486
- Absorbance DCIP [600nm], complex II ([1]; 330 s): 0.478 and 0.461 and 0.497 and 0.485
- Absorbance DCIP [600nm], complex II ([1]; 360 s): 0.477 and 0.460 and 0.496 and 0.484
- Absorbance DCIP [600nm], complex II ([1]; 390 s): 0.476 and 0.460 and 0.495 and 0.483
- Absorbance DCIP [600nm], complex II ([1]; 420 s): 0.476 and 0.459 and 0.494 and 0.482
- Absorbance DCIP [600nm], complex II ([1]; 450 s): 0.475 and 0.459 and 0.494 and 0.482
- Absorbance DCIP [600nm], complex II ([1]; 480 s): 0.475 and 0.458 and 0.494 and 0.481
- Absorbance DCIP [600nm], complex II ([1]; 510 s): 0.474 and 0.457 and 0.493 and 0.481
- Absorbance DCIP [600nm], complex II ([1]; 540 s): 0.473 and 0.457 and 0.492 and 0.480
- Absorbance DCIP [600nm], complex II ([1]; 570 s): 0.473 and 0.457 and 0.492
- Absorbance DCIP [600nm], complex II ([1]; 600 s): 0.472 and 0.457 and 0.491
- Absorbance DCIP [600nm], complex II ([1]; 630 s): 0.471 and 0.457 and 0.491
- Absorbance DCIP [600nm], complex II ([1]; 660 s): 0.470 and 0.456 and 0.490
- Absorbance DCIP [600nm], complex II ([1]; 690 s): 0.470 and 0.456 and 0.490
- Absorbance DCIP [600nm], complex II ([1]; 720 s): 0.470 and 0.455 and 0.489
- Absorbance DCIP [600nm], complex II ([1]; 750 s): 0.470 and 0.455 and 0.489
- Absorbance DCIP [600nm], complex II ([1]; 780 s): 0.469 and 0.454 and 0.489
- Absorbance DCIP [600nm], complex II ([1]; 810 s): 0.469 and 0.454 and 0.489
- Absorbance DCIP [600nm], complex II ([1]; 840 s): 0.470 and 0.453 and 0.490
- Absorbance DCIP [600nm], complex II ([1]; 870 s): 0.469 and 0.453 and 0.489
- Absorbance DCIP [600nm], complex II ([1]; 900 s): 0.468 and 0.453 and 0.489

SMILES: CCOc1ccc(CNc2nc3ccccc3n2CCN(CC)CC)cc1 [Compound 7768813]
- Screen "Hit" (L1 wild-type C. elegans; [2]): Y (hits were identified as compounds that reduced relative motility below 0.25 (75% reduction))
- Relative Motility (L1 wild-type C. elegans; [3]): 0.210

SMILES: Cn1c(/C=C/c2ccc(Cl)cc2)nc2ccccc21 [Compound 5663561]
- Screen "Hit" (L1 wild-type C. elegans; [5]): Y (hits were identified as compounds that reduced relative motility below 0.25 (75% reduction))
- Relative Motility (L1 wild-type C. elegans; [6]): 0.220
